Experimental data: patent publication US8097588B2, “Trophinin-binding peptides and uses thereof” (Sanford-Burnham Medical Research Institute, priority 2007, dated 2012)

Tests used:
A431 cells = test: Western blot for tyrosine phosphorylated proteins, A431 cells; format: cell-based; conditions: serum-depleted medium, 30 min
Protocol: (§1) Tyrosine phosphorylated proteins were detected by anti-phosphotyrosine antibody (4G10, mouse IgG). HT-H cells and A431 cells were grown in 10 cm plates to semi confluency, incubated in phosphorylation medium with GWRQ peptide (GWRQ-MAP; 2 μg/ml) at 4° C. for 15 min, and stimulated for phosphorylation at 37° C. for 0 min 120 min. Control HT-H cells were treated in the same manner without GWRQ peptide. HT-H cells were harvested using rubber policemen, collected by centrifugation, and washed once with cold PBS. Cells were lysed with 0.5% NP-40 in PBS containing phosphatase inhibitors (30 mM NaF, 40 mM β-glycerophosphate, 20 mM Na pyrophosphate, and 1 mM Na2VO4) and protease inhibitors (2 mM EGTA, 5 mM EDTA, 1 mM phenylmethylsulfonylfluoride, 3 mM benzamidine, 5 μM pepstatin A, 10 μM leupeptin). Western blot was carried out as described above.
(§2) Screening of phosphorylated proteins by phospho specific antibodies was carried out by Kinexus, Vancouver, B. C., Canada. HT-H cells and A431 cells grown as monolayers were serum starved by culturing in medium lacking FCS for 2 days. Cells were incubated in phosphorylation medium without FCS and then stimulated at 37° C. for 0 min˜120 min in medium containing recombinant human EGF (20 ng/ml) with or without GWRQ peptide.

HT-H cells [1] = test: Western blot for tyrosine phosphorylated proteins, HT-H cells; format: cell-based, human; conditions: serum-depleted medium, 30 min
Protocol: as §1, §2

ErbB4 [2] = test: Tyrosine kinase activity assay of anti-ErbB4 immunoprecipitates, HT-H cells; format: cell-based, human; conditions: GWRQ peptide 5 μg/ml, EGF 20 ng/ml
Protocol: (§3) A431 cells and HT-H cells were cultured in 10 cm plate to sub-confluency.
(§4) Medium was replaced with DME without FCS, and cells were cultured for 3 days without FCS by exchanging medium every day. To HT-H or A431 monolayer kept at 4° C., Na3VO4 was added to 1 mM. GWRQ peptide (5 μg/ml) and/or recombinant human EGF (20 ng/ml) was added to each plate, and left at 4° C. for 30 min. Cells were harvested by rubber policeman, and washed with cold PBS. Cells were lysed in PBS containing 1% NP-40, and cell lysate was subjected to immunoprecipitation with 20 & I protein A beads pre-coated with control IgG or with rabbit anti-ErbB4 antibody (Sant Cruz Biotechnology). Immunoprecipitates were washed with cold PBS and suspended in cold PBS. A polyvinylchloride ELISA plate (Falcon) was coated with tyrosine kinase substrate poly EY (Sigma) in PBS (1 μg/100 μl) at 4° C. for 20 hours. After washing the plate, each immunoprecipitate as triplicate was added to each well in 100 & I kinase assay buffer (50 mM Hepes buffer, pH 7.4, 20 mM MgCl2, 1 mM MnCl2 2 mM Na3VO4, and 0.4 mM ATP), and reacted at room temperature for 30 min. […] After washing wells with TBS, peroxidase substrate ABTS (Pierce) was added and developed color was read in an ELISA reader at 405 mm.

ErbB4 [3] = test: Tyrosine kinase activity assay of anti-ErbB4 immunoprecipitates, A431 cells; format: cell-based; conditions: GWRQ peptide 5 μg/ml, EGF 20 ng/ml
Protocol: as §3, §4

HT-H cells [4] = test: Activation of HT-H cells, monomeric versus branched peptide; format: cell-based, human

Substance	EGFR / tyrosine phosphorylation in A431 cells (A431 cells)	EGFR / tyrosine phosphorylation in HT-H cells (HT-H cells [1])	ErbB4 kinase activity in HT-H cells (ErbB4 [2])	ErbB4 kinase activity in A431 cells (ErbB4 [3])	concentration needed to activate HT-H cells (HT-H cells [4])	efficiency relative to octameric branched GWRQ peptide (GWRQ-MAP) (HT-H cells [4]; less efficiency)
EGF: recombinant human EGF (NSDSECPLSHDGYCLHDGVCMYIEALDKYACNCVVGYIGERCQYRDLKWWELR)	caused EGFR phosphorylation	no detectable EGFR phosphorylation	activated	activated	–	–
monomeric GWRQ peptide: a single linear GWRQ peptide	–	–	–	–	200 to 500 µg/mL	about 100 times
